The results in this text go back to ChEMBL document CHEMBL3992481 (2016).

≈ marks a conversion by molar mass, not a printed value. Calls of active or inactive are those of the source. No cut-off for these calls is given here.

Assay [1] has as its system Mycobacterium tuberculosis H37Rv. Nature of the assay: Ratio of MIC for inhibition of lipase in Mycobacterium tuberculosis H37Rv assessed as cell growth inhibition in absence of lalistat to MIC for inhibition of lipase in Mycobacterium tuberculosis H37Rv assessed as cell growth inhibition in presence of lalistat.
The subject of assay [2] is Mycobacterium tuberculosis. Nature of the assay: Antitubercular activity against Mycobacterium tuberculosis H37Rv assessed as cell growth inhibition by microbroth dilution assay. The assay is classed as functional. (In broth dilution the organism is exposed to a series of concentrations in liquid medium.)
The test system of assay [3] is Mycobacterium tuberculosis. Nature of the assay: Antitubercular activity against Mycobacterium tuberculosis H37Rv. The assay is classed as functional.
Assay [4] has as its system Mycobacterium tuberculosis H37Rv. The experiment in a line: Inhibition of lipase in Mycobacterium tuberculosis H37Rv assessed as cell growth inhibition after 7 days by resazurin assay.
For assay [5] the test system is unchanged. The experiment in a line: Ratio of MIC for inhibition of lipase in Mycobacterium tuberculosis H37Rv assessed as cell growth inhibition in absence of vancomycin to MIC for inhibition of lipase in Mycobacterium tuberculosis H37Rv assessed as cell growth inhibition in presence of vancomycin.
Assay [6] has the same test system. Nature of the assay: Inhibition of lipase in Mycobacterium tuberculosis H37Rv expressing GFP assessed as cell growth inhibition at 4 uM by fluorescence assay.
Assay [7] has the same test system. Nature of the assay: Inhibition of lipase in Mycobacterium tuberculosis H37Rv infected in human monocyte derived macrophages assessed as inhibition of bacterial growth treated for 7 days starting from 4 day post infection relative to control.
Assay [8] has as its target T1, Carboxylic ester hydrolase LipN (Mycobacterium tuberculosis (strain ATCC 25618 / H37Rv)) (UniProt P95125).
T1 sequence (whole entry): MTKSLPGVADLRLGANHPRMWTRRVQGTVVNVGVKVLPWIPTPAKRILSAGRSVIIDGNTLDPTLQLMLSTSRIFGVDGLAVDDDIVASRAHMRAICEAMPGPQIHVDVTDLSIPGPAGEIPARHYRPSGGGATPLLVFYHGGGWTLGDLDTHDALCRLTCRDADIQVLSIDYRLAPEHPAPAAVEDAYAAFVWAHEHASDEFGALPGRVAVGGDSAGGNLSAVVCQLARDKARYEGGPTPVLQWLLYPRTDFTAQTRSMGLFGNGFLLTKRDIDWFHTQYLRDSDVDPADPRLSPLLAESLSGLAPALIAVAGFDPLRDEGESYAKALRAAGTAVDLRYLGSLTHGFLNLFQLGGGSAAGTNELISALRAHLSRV
The experiment in a line: Competitive binding affinity to Mycobacterium tuberculosis H37Rv ATCC 25618 lipaseN at 60 uM preincubated for 60 mins followed by La-1 probe addition measured after 30 mins by ABPP method.

Assay [9] concerns the target T2, Putative acetyl-hydrolase LipR (Mycobacterium tuberculosis (strain ATCC 25618 / H37Rv)) (UniProt P9WK85).
T2 sequence (whole entry): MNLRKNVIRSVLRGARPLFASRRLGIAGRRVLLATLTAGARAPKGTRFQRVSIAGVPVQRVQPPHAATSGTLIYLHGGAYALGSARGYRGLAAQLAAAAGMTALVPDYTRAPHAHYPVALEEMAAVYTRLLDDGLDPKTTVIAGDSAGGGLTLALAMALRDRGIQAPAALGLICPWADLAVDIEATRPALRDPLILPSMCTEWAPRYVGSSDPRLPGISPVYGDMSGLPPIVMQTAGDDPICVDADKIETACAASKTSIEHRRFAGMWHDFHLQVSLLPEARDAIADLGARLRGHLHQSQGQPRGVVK
Nature of the assay: Competitive binding affinity to Mycobacterium tuberculosis H37Rv ATCC 25618 lipaseR at 60 uM preincubated for 60 mins followed by La-1 probe addition measured after 30 mins by ABPP method.

In assay [10] the target is T3, Esterase LipI (Mycobacterium tuberculosis (strain ATCC 25618 / H37Rv)) (UniProt P71668).
T3 sequence (whole entry): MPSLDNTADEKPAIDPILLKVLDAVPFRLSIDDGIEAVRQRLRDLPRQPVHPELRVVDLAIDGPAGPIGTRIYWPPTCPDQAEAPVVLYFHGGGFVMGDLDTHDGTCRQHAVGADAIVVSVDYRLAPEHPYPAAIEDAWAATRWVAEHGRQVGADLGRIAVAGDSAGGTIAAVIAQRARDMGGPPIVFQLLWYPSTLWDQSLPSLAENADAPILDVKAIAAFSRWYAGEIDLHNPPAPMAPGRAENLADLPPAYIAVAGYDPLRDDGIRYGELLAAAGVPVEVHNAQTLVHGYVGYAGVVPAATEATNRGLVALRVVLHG
Nature of the assay: Competitive binding affinity to Mycobacterium tuberculosis H37Rv ATCC 25618 lipase-I at 60 uM preincubated for 60 mins followed by La-1 probe addition measured after 30 mins by ABPP method.

For assay [11], the target named is T4, Probable carboxylic ester hydrolase LipM (Mycobacterium tuberculosis (strain ATCC 25618 / H37Rv)) (UniProt Q50681).
T4 sequence (whole entry): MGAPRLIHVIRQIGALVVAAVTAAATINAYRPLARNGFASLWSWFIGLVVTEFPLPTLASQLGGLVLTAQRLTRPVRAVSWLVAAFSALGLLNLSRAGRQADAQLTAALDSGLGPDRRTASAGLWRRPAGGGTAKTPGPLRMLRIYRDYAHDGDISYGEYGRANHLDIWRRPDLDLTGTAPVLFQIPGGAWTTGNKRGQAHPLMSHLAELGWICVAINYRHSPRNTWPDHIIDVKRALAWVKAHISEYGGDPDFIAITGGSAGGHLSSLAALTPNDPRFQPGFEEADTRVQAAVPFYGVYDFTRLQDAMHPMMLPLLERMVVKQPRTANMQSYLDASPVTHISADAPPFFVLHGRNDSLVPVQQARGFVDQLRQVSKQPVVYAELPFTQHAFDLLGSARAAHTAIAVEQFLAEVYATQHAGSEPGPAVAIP
The experiment in a line: Competitive binding affinity to Mycobacterium tuberculosis H37Rv ATCC 25618 lipase-M at 60 uM preincubated for 60 mins followed by La-1 probe addition measured after 30 mins by ABPP method.

Assay [12] addresses T5, Probable lipase/esterase LipG (Mycobacterium tuberculosis (strain ATCC 25618 / H37Rv)) (UniProt P96935).
T5 sequence (whole entry): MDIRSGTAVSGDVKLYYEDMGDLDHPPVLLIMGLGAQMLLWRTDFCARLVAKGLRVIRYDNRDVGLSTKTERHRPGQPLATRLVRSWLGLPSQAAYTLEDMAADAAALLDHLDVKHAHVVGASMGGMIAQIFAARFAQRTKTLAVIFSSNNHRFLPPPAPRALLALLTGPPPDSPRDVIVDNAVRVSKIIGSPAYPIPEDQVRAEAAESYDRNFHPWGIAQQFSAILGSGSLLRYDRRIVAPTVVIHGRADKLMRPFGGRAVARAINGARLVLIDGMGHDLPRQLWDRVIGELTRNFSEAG
Nature of the assay: Competitive binding affinity to Mycobacterium tuberculosis H37Rv ATCC 25618 lipase-G at 60 uM preincubated for 60 mins followed by La-1 probe addition measured after 30 mins by ABPP method.

In assay [13] the target is T6, Carboxylic ester hydrolase (Mycobacterium tuberculosis (strain ATCC 25618 / H37Rv)) (UniProt O53488).
T6 sequence (whole entry): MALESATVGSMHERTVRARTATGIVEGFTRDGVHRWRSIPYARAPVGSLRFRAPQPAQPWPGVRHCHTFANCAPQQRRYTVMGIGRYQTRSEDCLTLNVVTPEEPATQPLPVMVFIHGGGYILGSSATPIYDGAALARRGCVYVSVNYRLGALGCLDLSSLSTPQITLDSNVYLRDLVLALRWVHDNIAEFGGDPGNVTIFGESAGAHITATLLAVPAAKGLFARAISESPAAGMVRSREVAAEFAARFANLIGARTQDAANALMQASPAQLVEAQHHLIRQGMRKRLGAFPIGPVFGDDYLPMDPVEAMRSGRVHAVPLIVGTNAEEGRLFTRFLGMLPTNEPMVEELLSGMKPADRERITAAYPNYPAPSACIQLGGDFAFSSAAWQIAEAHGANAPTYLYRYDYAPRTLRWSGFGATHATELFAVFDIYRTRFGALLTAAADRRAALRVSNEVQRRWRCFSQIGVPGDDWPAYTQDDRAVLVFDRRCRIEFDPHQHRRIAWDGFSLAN
The experiment in a line: Competitive binding affinity to Mycobacterium tuberculosis H37Rv ATCC 25618 lipase-T at 60 uM preincubated for 60 mins followed by La-1 probe addition measured after 30 mins by ABPP method.

For assay [14], the target named is T7, Probable esterase LipO (Mycobacterium tuberculosis (strain ATCC 25618 / H37Rv)) (UniProt O06832).
T7 sequence (whole entry): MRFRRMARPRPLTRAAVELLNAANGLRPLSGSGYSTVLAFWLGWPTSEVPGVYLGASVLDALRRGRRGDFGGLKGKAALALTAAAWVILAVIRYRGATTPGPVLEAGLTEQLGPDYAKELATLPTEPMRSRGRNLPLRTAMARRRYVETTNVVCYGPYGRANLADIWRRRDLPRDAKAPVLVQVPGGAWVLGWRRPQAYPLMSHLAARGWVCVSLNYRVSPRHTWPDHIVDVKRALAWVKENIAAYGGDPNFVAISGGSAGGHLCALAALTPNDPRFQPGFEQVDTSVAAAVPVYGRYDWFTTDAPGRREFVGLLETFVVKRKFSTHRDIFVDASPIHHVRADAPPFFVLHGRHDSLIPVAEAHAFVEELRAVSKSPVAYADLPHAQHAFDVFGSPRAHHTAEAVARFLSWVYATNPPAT
The experiment in a line: Competitive binding affinity to Mycobacterium tuberculosis H37Rv ATCC 25618 lipase-O at 60 uM preincubated for 60 mins followed by La-1 probe addition measured after 30 mins by ABPP method.

Assay [15] concerns the target T2, Putative acetyl-hydrolase LipR (Mycobacterium tuberculosis (strain ATCC 25618 / H37Rv)). The experiment in a line: Binding affinity to N-terminal His6-tagged Mycobacterium tuberculosis H37Rv ATCC 25618 lipase-R at 30 uM after 30 mins by RhN3 staining based fluorescence assay.

Consider `CN[C@H](CC(C)C)C(=O)N[C@H]1C(=O)N[C@@H](CC(N)=O)C(=O)N[C@H]2C(=O)N[C@H]3C(=O)N[C@H](C(=O)N[C@H](C(=O)O)c4cc(O)cc(O)c4-c4cc3ccc4O)[C@H](O)c3ccc(c(Cl)c3)Oc3cc2cc(c3O[C@@H]2O[C@H](CO)[C@@H](O)[C@H](O)[C@H]2O[C@H]2C[C@](C)(N)[C@H](O)[C@H](C)O2)Oc2ccc(cc2Cl)[C@H]1O`, for which the Ratio in assay [1] worked out at 16.

With `NNC(=O)c1ccncc1` [ISONIAZID], the MIC in assay [2] lay within 0.04 to 1 µM.

With `CO[C@H]1/C=C/O[C@@]2(C)Oc3c(C)c(O)c4c(O)c(c(/C=N/N5CCN(C)CC5)c(O)c4c3C2=O)NC(=O)/C(C)=C\C=C\[C@H](C)[C@H](O)[C@@H](C)[C@@H](O)[C@@H](C)[C@H](OC(C)=O)[C@@H]1C` [RIFAMPIN], the MIC in assay [2] fell in the range of 0.04 to 1 µM.

Compound `CCCCCCCCCCC[C@@H](C[C@@H]1OC(=O)[C@H]1CCCCCC)OC(=O)[C@H](CC(C)C)NC=O` [ORLISTAT] showed an MIC in [3] of 30 µM (≈ 14.9 µg/mL).

With `O=C(Oc1nsnc1N1CCCCC1)N1CCCCC1`, the MIC in assay [4] lay in the range of 25 to 50 µM (≈ 7.41 to 14.8 µg/mL). Further, the Ratio in assay [5] worked out at 4. Also, in assay [6], the “growth inhibition (GI)” value is “Active”. In [7], the growth inhibition (GI) is 55%. For the same compound, the outcome in assay [8], in assay [9], in assay [10], in assay [11], in assay [12] and in assay [13] was Active. Moreover, in assay [14], the result was Active.

As to `C#CC1CCN(C(=O)Oc2nsnc2N2CCCCC2)CC1`, in assay [4], the “growth inhibition (GI)” value was “Active”. Besides, the outcome in assay [15] was Active.
